First: CC1(O)CCN(Cc2ccc(N/C(=C3\C(=O)Nc4ccc([N+](=O)[O-])cc43)c3ccccc3)cc2)CC1 [Example 251, (Z)-3-{1-[4-(4-hydroxy-4-methyl-piperidinomethyl)-phenylamino]-1-phenyl-methylidene}-5-nitro-2-indolinone]
Second: O=C1Nc2ccc([N+](=O)[O-])cc2/C1=C(/Nc1ccc(CN2CCOCC2)cc1)c1ccccc1 [Example 118, (Z)-3-[1-(4-morpholinomethyl-phenylamino)-1-phenyl-methylidene]-5-nitro-2-indolinone]
The melting point of the first is lower: 186 to 187 °C for the first, 273 °C for the second.

First: O=C1Nc2ccc([N+](=O)[O-])cc2/C1=C(/Nc1ccc(CNC2CCCC2)cc1)c1ccccc1 [Example 276, (Z)-3-{1-[4-(cyclopentylaminomethyl)-phenylamino]-1-phenyl-methylidene}-5-nitro-2-indolinone]
Second: NC(=O)C1CCN(Cc2ccc(N/C(=C3\C(=O)Nc4ccc([N+](=O)[O-])cc43)c3ccccc3)cc2)CC1 [Example 247, (Z)-3-{1-[4-(4-aminocarbonyl-piperidinomethyl)-phenylamino]-1-phenyl-methylidene}-5-nitro-2-indolinone]
The melting point of the first is lower: 231 °C for the first, 296 to 297 °C for the second.

First: O=C1Nc2ccc([N+](=O)[O-])cc2/C1=C(/Nc1cccc(CN2CCCCC2)c1)c1ccccc1 [Example 108, (Z)-3-[1-(3-piperidinomethyl-phenylamino)-1-phenyl-methylidene]-5-nitro-2-indolinone]
Second: O=C(O)CCNCc1cccc(N/C(=C2\C(=O)Nc3ccc([N+](=O)[O-])cc32)c2ccccc2)c1 [Example 252, (Z)-3-{1-[3-(2-carboxyethylaminomethyl)-phenylamino]-1-phenyl-methylidene}-5-nitro-2-indolinone]
The melting point of the first is lower: 214 to 215 °C for the first, 247 to 249 °C for the second.

First: O=C(O)CNC(=O)c1ccc(N/C(=C2\C(=O)Nc3ccccc32)c2ccccc2)cc1 [Example 393, (Z)-3-{1-[4-(carboxymethylaminocarbonyl)-phenylamino]-1-phenyl-methylidene}-2-indolinone]
Second: CCOC(=O)CNC(=O)c1ccc(N/C(=C2\C(=O)Nc3ccccc32)c2ccccc2)cc1 [Example 392, (Z)-3-{1-[4-(ethoxycarbonylmethylaminocarbonyl)-phenylamino]-1-phenyl-methylidene}-2-indolinone]
The melting point of the first is higher: 245 to 247 °C for the first, 235 to 237 °C for the second.

First: CN(C)CCN(C)CC(=O)N(C)c1ccc(N/C(=C2\C(=O)Nc3ccccc32)c2ccccc2)cc1 [Example 375, (Z)-3-{1-[4-(N—(N-(2-dimethylaminoethyl)-N-methyl-aminomethylcarbonyl)-N-methylamino)-phenylamino]-1-phenyl-methylidene}-2-indolinone]
Second: CN(C)CCCOc1ccc(N/C(=C2\C(=O)Nc3ccccc32)c2ccccc2)cc1 [Example 286, (Z)-3-{1-[4-(3-dimethylaminopropyloxy)-phenylamino]-1-phenyl-methylidene}-2-indolinone]
The melting point of the first is lower: 167 to 169 °C for the first, 215 to 217 °C for the second.

First: CN(C)CCNS(=O)(=O)c1ccc(N/C(=C2\C(=O)Nc3ccccc32)c2ccccc2)cc1 [Example 399, (Z)-3-{1-[4-(2-dimethylamino-ethylaminosulphonyl)-phenylamino]-1-phenyl-methylidene}-2-indolinone]
Second: COCCN(C)C(=O)c1ccc(N/C(=C2\C(=O)Nc3ccccc32)c2ccccc2)cc1 [Example 389, (Z)-3-{1-[4-(N-(2-methoxyethyl)-N-methyl-aminocarbonyl)-phenylamino]-1-phenyl-methylidene}-2-indolinone]
The melting point of the first is higher: 233 to 235 °C for the first, 198 to 200 °C for the second.

Compared with `CC(=O)NCc1ccc(/C(Nc2cccc(N(CC(N)=O)S(C)(=O)=O)c2)=C2/C(=O)Nc3ccccc32)cc1` [Example 417, (Z)-3-{1-[3-(N-aminocarbonylmethyl-N-methylsulphonyl-amino)-phenylamino]-1-(4-acetylaminomethyl-phenyl)-methylidene}-2-indolinone], `CNC(=O)CN(c1cccc(N/C(=C2\C(=O)Nc3ccccc32)c2ccc(CNC(C)=O)cc2)c1)S(C)(=O)=O` [Example 419, (Z)-3-{1-[3-(N-methylaminocarbonylmethyl-N-methylsulphonyl-amino)-phenylamino]-1-(4-acetylaminomethyl-phenyl)-methylidene}-2-indolinone] is higher in melting point: 215 °C for the first, 242 °C for the second.

Compared with `CN(C)CCNc1ccc(N/C(=C2\C(=O)Nc3ccc([N+](=O)[O-])cc32)c2ccccc2)cc1` [Example 326, (Z)-3-{1-[4-(2-dimethylamino-ethylamino)-phenylamino]-1-phenyl-methylidene}-5-nitro-2-indolinone], `CC(C)C(=O)N(CCN(C)C)c1ccc(N/C(=C2\C(=O)Nc3ccc([N+](=O)[O-])cc32)c2ccccc2)cc1` [Example 330, (Z)-3-{1-[4-(N-(2-dimethylaminoethyl)-N-isopropylcarbonyl-amino)-phenylamino]-1-phenyl-methylidene}-5-nitro-2-indolinone] is higher in melting point: 227 to 229 °C for the first, 296 to 298 °C for the second.

Compared with `CN(Cc1ccc(N/C(=C2\C(=O)Nc3ccc([N+](=O)[O-])cc32)c2ccccc2)cc1)c1ccccn1` [Example 235, (Z)-3-{1-[4-(N-methyl-N-(2-pyridyl)-aminomethyl)-phenylamino]-1-phenyl-methylidene}-5-nitro-2-indolinone], `CCN(CC)CCc1ccc(N/C(=C2\C(=O)Nc3ccc([N+](=O)[O-])cc32)c2ccccc2)cc1` [Example 130, (Z)-3-{1-[4-(2-diethylamino-ethyl)-phenylamino]-1-phenyl-methylidene}-5-nitro-2-indolinone] is lower in melting point: 213 to 216 °C for the first, 167 to 168 °C for the second.

Compared with `CC(=O)NCC(=O)N(C)c1ccc(N/C(=C2\C(=O)Nc3ccc([N+](=O)[O-])cc32)c2ccccc2)cc1` [Example 140, (Z)-3-{1-[4-(N-acetylaminomethylcarbonyl-N-methyl-amino)phenylamino]-1-phenyl-methylidene}-5-nitro-2-indolinone], `CN(C(=O)CN)c1ccc(N/C(=C2\C(=O)Nc3ccc([N+](=O)[O-])cc32)c2ccccc2)cc1` [Example 139, (Z)-3-{1-[4-(N-aminomethylcarbonyl-N-methyl-amino)-phenyl-amino]-1-phenyl-methylidene}-5-nitro-2-indolinone] is lower in melting point: 277 to 278 °C for the first, 255 to 256 °C for the second.

Compared with `COc1cccc(N/C(=C2\C(=O)Nc3ccccc32)c2ccccc2)c1` [Example 3, (Z)-3-[1-(3-methoxy-phenylamino)-1-phenyl-methylidene]-2-indolinone], `NCc1cccc(N/C(=C2\C(=O)Nc3ccccc32)c2ccccc2)c1` [Example 68, (Z)-3-[1-(3-aminomethyl-phenylamino)-1-phenyl-methylidene]-2-indolinone] is lower in melting point: 218 to 221 °C for the first, 175 to 185 °C for the second.

Compared with `NC(CCO)(CCO)c1ccc(N/C(=C2\C(=O)Nc3ccc([N+](=O)[O-])cc32)c2ccccc2)cc1` [Example 240, (Z)-3-{1-[4-(Bis-(2-hydroxyethyl)-aminomethyl)-phenylamino]-1-phenyl-methylidene}-5-nitro-2-indolinone], `CCOC(=O)CNS(=O)(=O)c1ccc(N/C(=C2\C(=O)Nc3ccc([N+](=O)[O-])cc32)c2ccccc2)cc1` [Example 410, (Z)-3-{1-[4-(ethoxycarbonylmethylaminosulphonyl)-phenylamino]-1-phenyl-methylidene}-5-nitro-2-indolinone] is higher in melting point: 196 to 198 °C for the first, 247 to 249 °C for the second.

Compared with `NC(=O)c1ccc(N/C(=C2\C(=O)Nc3ccccc32)c2ccccc2)cc1` [Example 20, (Z)-3-[1-(4-aminocarbonyl-phenylamino)-1-phenyl-methylidene]-2-indolinone], `COCC(=O)NCc1ccc(N/C(=C2\C(=O)Nc3ccccc32)c2ccccc2)cc1` [Example 76, (Z)-3-[1-(4-methoxymethylcarbonylaminomethyl-phenylamino)-1-phenyl-methylidene]-2-indolinone] is lower in melting point: 321 to 323 °C for the first, 178 to 180 °C for the second.

First: CCS(=O)(=O)N(CCN1CCOCC1)c1ccc(N/C(=C2\C(=O)Nc3ccccc32)c2ccccc2)cc1 [Example 308, (Z)-3-{1-[4-(N-(2-morpholinoethyl)-N-ethylsulphonyl-amino)-phenylamino]-1-phenyl-methylidene}-2-indolinone]
Second: CCC(=O)N(CCN1CCOCC1)c1ccc(N/C(=C2\C(=O)Nc3ccc([N+](=O)[O-])cc32)c2ccccc2)cc1 [Example 335, (Z)-3-{1-[4-(N-(2-morpholinoethyl)-N-propionyl-amino)-phenylamino]-1-phenyl-methylidene}-5-nitro-2-indolinone]
The melting point of the first is lower: 222 to 224 °C for the first, 232 °C for the second.

First: CCOC(=O)CN(c1cccc(N/C(=C2\C(=O)Nc3ccccc32)c2ccccc2)c1)S(C)(=O)=O [Example 317, (Z)-3-{1-[3-(N-ethoxycarbonylmethyl-N-methylsulphonyl-amino)-phenylamino]-1-phenyl-methylidene}-2-indolinone]
Second: CN(C)CCN(c1ccc(N/C(=C2\C(=O)Nc3ccccc32)c2ccccc2)cc1)S(=O)(=O)Cc1ccccc1 [Example 314, (Z)-3-{1-[4-(N-(2-dimethylaminoethyl)-N-benzylsulphonyl-amino)-phenylamino]-1-phenyl-methylidene}-2-indolinone]
The melting point of the first is lower: 188 to 190 °C for the first, 244 °C for the second.

For `CC(=O)N(CC(=O)O)c1ccc(N/C(=C2\C(=O)Nc3ccccc32)c2ccccc2)cc1` [Example 353, (Z)-3-{1-[4-(N-carboxymethyl-N-acetyl-amino)-phenylamino]-1-phenyl-methylidene}-2-indolinone], the melting point was 276 °C (dec.).
With `CC(C)(C)OC(=O)NCC(=O)Nc1ccc(N/C(=C2\C(=O)Nc3ccccc32)c2ccccc2)cc1` [Example 34, (Z)-3-[1-(4-tert.butoxycarbonylaminomethylcarbonylamino-phenylamino)-1-phenyl-methylidene]-2-indolinone] the melting point was 243 to 244 °C (dec.).
For `CN(C)C(=O)C1CCN(CCc2ccc(N/C(=C3\C(=O)Nc4ccc([N+](=O)[O-])cc43)c3ccccc3)cc2)CC1` [Example 264, (Z)-3-{1-[4-(2-(4-dimethylaminocarbonyl-piperidino)-ethyl)-phenylamino]-1-phenyl-methylidene}-5-nitro-2-indolinone], the melting point was 288 °C (dec.).

— patent US6855710B2, “Substituted indolines with an inhibitory effect on various kinases and complexes of CDKs” (Boehringer Ingelheim Pharma KG, priority 1998, dated 2005)
